Values of other authors as cited in publication PMC6311893, “Computational prediction of plasma protein binding of cyclic peptides from small molecule experimental data using sparse modeling techniques” (BMC Bioinformatics, 2018).
Where a name gives a salt, the structure may show the parent alone. Non-standard residues stand in square brackets, D forms with d. Residues, ends and D or L forms follow the SMILES beside them. dPhe(4-Cl) = N[C@H](Cc1ccc(Cl)cc1)C(=O)O; d2Nal = N[C@H](Cc1ccc2ccccc2c1)C(=O)O; dCit = NC(=O)NCCC[C@@H](N)C(=O)O; d3Pal = N[C@H](Cc1cccnc1)C(=O)O

system: plasma protein; details: cited from earlier work

For `COc1ccc(/C=C\c2cc(OC)c(OC)c(OC)c2)cc1OP(=O)(O)O` [Combretastatin A4 phosphate], the “PPB (fb)” value is listed as 0.77.

same assay, conditions: fraction bound to plasma protein; small molecule dataset, sheet 1-SM (Set Dte = test, Dtr = training); ref Ingle et al.; cited from earlier work

In order of rising “PPB (fb)” value:
1. Nc1ncn([C@H]2C[C@H](O)[C@@H](CO)O2)c(=O)n1 [Decitabine]  0
2. CC(=O)Nc1c(I)c(NC(C)=O)c(I)c(C(=O)O)c1I [Diatrizoic Acid (Amidotrizoate)]  0.02
3. NC1CCN(c2c(F)cc3c(=O)c(C(=O)O)cn(C4CC4)c3c2Cl)C1 (stereo not shown) [Clinafloxacin]  0.04
4. CO/N=C(\C(=O)N[C@@H]1C(=O)N2C(C(=O)O)=C(COC(C)=O)CS[C@H]12)c1csc(N)n1 [Cefotaxime]  0.38
5. CCN(CC)CCNC(=O)c1cc(Br)c(N)cc1OC [Bromopride]  0.4
6. O=C(OCCN1CCCCCC1)C(c1ccsc1)C1CCCCC1 (stereo not shown) [Cetiedil]  0.74
7. Cc1nnc(SCC2=C(C(=O)O)N3C(=O)[C@@H](NC(=O)Cn4cnnn4)[C@H]3SC2)s1 [Cefazolin]  0.83
8. CCCC(=O)N1CCCN(c2nc(N)c3cc(OC)c(OC)cc3n2)CC1 [Bunazosin]  0.95
9. C[C@@H](NCCCc1cccc(C(F)(F)F)c1)c1cccc2ccccc12 [Cinacalcet hydrochloride]  0.95
10. CC[C@@]1(O)C(=O)OCc2c1cc1n(c2=O)Cc2cc3ccccc3nc2-1 [Camptothecin]  0.98
11. CCOc1nc2cccc(C(=O)OC(C)OC(=O)OC3CCCCC3)c2n1Cc1ccc(-c2ccccc2-c2nnn[nH]2)cc1 (stereo not shown) [Candesartan cilexetil]  0.99
12. CC(C(=O)O)c1ccc2c(c1)[nH]c1ccc(Cl)cc12 (stereo not shown) [Carprofen]  0.99

same assay, conditions: fraction bound to plasma protein; small molecule dataset, sheet 1-SM, Set Dtr; ref Ingle et al.; cited from earlier work

In order of falling “PPB (fb)” value:
1. COc1ccc([C@]2(C#N)CC[C@@H](C(=O)O)CC2)cc1OC1CCCC1 [Cilomilast]  0.99
2. Cc1nc2c([nH]1)-c1ccccc1N(C(=O)c1ccc(NC(=O)c3ccccc3-c3ccccc3)cc1)CC2 [Conivaptan]  0.99
3. CCCCCN(CCCOC)C(=O)[C@@H](CCC(=O)O)NC(=O)c1ccc(Cl)c(Cl)c1 [Dexloxiglumide]  0.98
4. COc1ccccc1Oc1c(NS(=O)(=O)c2ccc(C(C)(C)C)cc2)nc(-c2ncccn2)nc1OCCO [Bosentan]  0.97
5. CCCCNc1cc(C(=O)O)cc(S(N)(=O)=O)c1Oc1ccccc1 [Bumetanide]  0.96
6. COc1ccccc1OCCNCC(O)COc1cccc2[nH]c3ccccc3c12 (stereo not shown) [Carvedilol]  0.96
7. CN(C)CCCN1c2ccccc2Sc2ccc(Cl)cc21 [Chlorpromazine]  0.96
8. CCCNC(=O)NS(=O)(=O)c1ccc(Cl)cc1 [Chlorpropamide]  0.96
9. CCCCN1CCCCC1C(=O)Nc1c(C)cccc1C (stereo not shown) [Bupivacaine]  0.95
10. CN1CCN(C2=Nc3cc(Cl)ccc3Nc3ccccc32)CC1 [Clozapine]  0.95
11. Cc1cccc([C@H](C)c2cnc[nH]2)c1C [Dexmedetomidine]  0.94
12. CC1=NS(=O)(=O)c2cc(Cl)ccc2N1 [Diazoxide]  0.92
13. CNCCCN1c2ccccc2CCc2ccccc21 [Desipramine]  0.85
14. CO[C@@]1(NC(=O)C2SC(=C(C(N)=O)C(=O)O)S2)C(=O)N2C(C(=O)O)=C(CSc3nnnn3C)CS[C@@H]21 (stereo partly shown) [Cefotetan]  0.84
15. NCc1ccccc1CC(=O)N[C@@H]1C(=O)N2C(C(=O)O)=C(CSc3nnnn3CC(=O)O)CS[C@H]12 [Ceforanide]  0.81
16. NS(=O)(=O)c1cc(C2(O)NC(=O)c3ccccc32)ccc1Cl (stereo not shown) [Chlorthalidone]  0.75
17. Nc1ccc(S(=O)(=O)c2ccc(N)cc2)cc1 [Dapsone]  0.75
18. Cn1nnnc1SCC1=C(C(=O)O)N2C(=O)[C@@H](NC(=O)[C@H](O)c3ccccc3)[C@H]2SC1 [Cefamandole]  0.74
19. CC(=O)OCC1=C(C(=O)O)N2C(=O)[C@@H](NC(=O)Cc3cccs3)[C@H]2SC1 [Cephalothin]  0.73
20. CN(C)CCCC1(c2ccc(F)cc2)OCc2cc(C#N)ccc21 (stereo not shown) [Citalopram]  0.68
21. C[C@@H]1C[C@H]2[C@@H]3CCC4=CC(=O)C=C[C@]4(C)[C@@]3(F)[C@@H](O)C[C@]2(C)[C@@]1(O)C(=O)CO [Dexamethasone]  0.68
22. O=C(N[C@H](CO)[C@H](O)c1ccc([N+](=O)[O-])cc1)C(Cl)Cl [Chloramphenicol]  0.61
23. COc1cc(OC)c(C(=O)CCCN2CCCC2)c(OC)c1 [Buflomedil]  0.6
24. N[C@@H](C(=O)N[C@@H]1C(=O)N2C(C(=O)O)=C(CSc3c[nH]nn3)CS[C@H]12)c1ccc(O)cc1 [Cefatrizine]  0.59
25. CCN(CC)CCCC(C)Nc1ccnc2cc(Cl)ccc12 (stereo not shown) [Chloroquine]  0.58
26. CC(=O)OCC1=C(C(=O)O)N2C(=O)[C@@H](NC(=O)CSc3ccncc3)[C@H]2SC1 [Cephapirin]  0.53
27. C/C=C/C1=C(C(=O)O)N2C(=O)C(NC(=O)C(N)c3ccc(O)cc3)C2SC1 (stereo not shown) [Cefprozil]  0.38
28. Nc1nc(/C(=N/O)C(=O)N[C@@H]2C(=O)N3C(C(=O)O)=C(/C=C4\CCN([C@@H]5CCNC5)C4=O)CS[C@H]23)ns1 [Ceftobiprole]  0.38
29. COc1ccc(C[C@@H]2c3cc(OC)c(OC)cc3CC[N@+]2(C)CCC(=O)OCCCCCOC(=O)CC[N@@+]2(C)CCc3cc(OC)c(OC)cc3[C@H]2Cc2ccc(OC)c(OC)c2)cc1OC [Cisatracurium]  0.38
30. Clc1cccc(Cl)c1N=C1NCCN1 [Clonidine]  0.34
31. CO/N=C(\C(=O)N[C@@H]1C(=O)N2C(C(=O)O)=C(COC(N)=O)CS[C@H]12)c1ccco1 [Cefuroxime]  0.32
32. NC(=O)OC[C@@H]1[C@H](NC(=O)/C(=N\OCC(=O)O)c2csc(N)n2)C(=O)N1S(=O)(=O)O [Carumonam]  0.28
33. CO/N=C(\C(=O)N[C@@H]1C(=O)N2C(C(=O)O)=CCS[C@H]12)c1csc(N)n1 [Ceftizoxime]  0.28
34. CO/N=C(\C(=O)N[C@@H]1C(=O)N2C(C(=O)O)=C(C)CS[C@H]12)c1csc(N)n1 [Cefetamet]  0.22
35. CN/C(=N/CCSCc1nc[nH]c1C)NC#N [Cimetidine]  0.2
36. Nc1nc(Cl)nc2c1ncn2[C@H]1C[C@H](O)[C@@H](CO)O1 [Cladribine]  0.2
37. O=C(O)[C@H]1/C(=C/CO)O[C@@H]2CC(=O)N21 [Clavulanic Acid]  0.09
38. CS(=O)(=O)OCCCCOS(C)(=O)=O [Busulphan]  0.04
39. Nc1ccn(C[C@@H](CO)OCP(=O)(O)O)c(=O)n1 [Cidofovir]  0.02
40. CN(C)/N=N/c1[nH]cnc1C(N)=O [Dacarbazine]  0.02
41. C[C@@H](CN1CC(=O)NC(=O)C1)N1CC(=O)NC(=O)C1 [Dexrazoxane]  0.01

same assay, conditions: human, plasma; cited from earlier work

For `CC(=O)N[C@H](Cc1ccc2ccccc2c1)C(=O)N[C@H](Cc1ccc(Cl)cc1)C(=O)N[C@H](Cc1cccnc1)C(=O)N[C@@H](CO)C(=O)N[C@@H](Cc1ccc(O)cc1)C(=O)N[C@H](CCCNC(N)=O)C(=O)N[C@@H](CC(C)C)C(=O)N[C@@H](CCCNC(=N)N)C(=O)N1CCC[C@H]1C(=O)N[C@H](C)C(N)=O` [Cetrorelix] (Ac-[d2Nal][dPhe(4-Cl)][d3Pal]SY[dCit]LRP[dA]-NH2), the “PPB (fb)” value is given as 0.86.

same assay, conditions: plasma; cited from earlier work

In order of rising “PPB (fb)” value:
1. O=P1(N(CCCl)CCCl)NCCCO1 (stereo not shown) [Cyclophosphamide]  0.15
2. COc1ccc2c3c1O[C@H]1[C@@H](O)C=C[C@H]4[C@@H](C2)N(C)CC[C@@]341 [Codeine]  0.21
3. CCN[C@@H](C)Cc1cccc(C(F)(F)F)c1 [Dexfenfluramine]  0.34
4. CCOC(=O)[C@@H]1C2CCC(C[C@@H]1OC(=O)c1ccccc1)N2C (stereo partly shown) [Cocaethylene]  0.36
5. CC1(C)C[C@@H]1C(=O)N/C(=C\CCCCSC[C@H](N)C(=O)O)C(=O)O [Cilastatin]  0.37
6. O=C1CN=C(c2ccccn2)c2cc(Br)ccc2N1 [Bromazepam]  0.61
7. Cc1ncsc1CCCl [Chlormethiazole]  0.64
8. O=NN(CCCl)C(=O)NCCCl [Carmustine (BCNU)]  0.77
9. Oc1ccc2c(c1)[C@@]13CCCC[C@@]1(O)[C@@H](C2)N(CC1CCC1)CC3 [Butorphanol]  0.81
10. O=C1CN=C(c2ccccc2Cl)c2cc([N+](=O)[O-])ccc2N1 [Clonazepam]  0.85
11. COC(=O)[C@H]1[C@@H](OC(=O)c2ccccc2)C[C@@H]2CC[C@H]1N2C [Cocaine]  0.89
12. O=C1CN=C(c2ccccc2Cl)c2cc(Cl)ccc2N1 [Delorazepam (Chlordesmethyldiazepam)]  0.95
13. O=C(O)CCCc1ccc(N(CCCl)CCCl)cc1 [Chlorambucil]  0.99
14. COc1ccc2c(C(=O)c3ccc(Cl)cc3)c(C)n(CC(=O)O)c2c1 [Clometacin]  0.99
15. CC/C=C\C/C=C\C/C=C\C/C=C\C/C=C\C/C=C/CCC(=O)O[C@@H](C(=O)O[C@H]1C[C@@]2(O)[C@@H](OC(=O)c3ccccc3)C3[C@](C)(C(=O)[C@H](OC(C)=O)C(=C1C)C2(C)C)[C@@H](O)C[C@H]1OC[C@@]31OC(C)=O)[C@@H](NC(=O)c1ccccc1)c1ccccc1 (stereo partly shown) [DHA Paclitaxel]  0.9962
